Among the data in patent US8012957B2, “Tetrahydro-1H-1,2,6-triaza-azulene cannabinoid modulators” (Janssen Pharmaceutica NV, priority 2006, dated 2011) are inhibition and IC50 values, retold here.

The inhibition is the drop in the measured response relative to a control, in per cent. Usually IC50 stands for the concentration needed to halve the response being measured.

Experiment [1] concerns the target T1, cannabinoid CB1 receptor (Homo sapiens, UniProt P21554).
T1 construct: expressed in transfected cells; host or cells: SK-N-MC cells, pcDNA3 CB-1 (human), semi-purified membrane pellet
The experiment is described as follows: Binding assay for CB1, [3H]-CP-55,940 displacement on membranes of transfected SK-N-MC cells. The following applies: for inhibition at 0.2 µM: test concentration of 0.2 μM, read-out: Cannabinoid CB 1 Receptor Binding Inhibition (%); for IC50: radioligand [3H]-CP-55,940 0.2 nM, calculated by linear regression. The procedure:
(§1) Binding Assay for CB1 or CB2 Agonists or Inverse Agonists
(§2) The human CB1 and CB2 receptors were stably expressed in SK-N-MC cells transfected with pcDNA3 CB-1 (human) or pcDNA3 CB-2 (human). The cells were grown in T-180 cell culture flasks under standard cell culture conditions at 37° C. in a 5% CO2 atmosphere. The cells were harvested by trysinization and homogenized in a homogenization buffer (10 mM Tris, 0.2 mM MgCl2, 5 mM KCl, with protease inhibitors aprotinin, leupeptin, pepstatin A and bacitracin) and centrifuged (2000 g). The supernatant was then centrifuged in 2M sucrose (31,300 g) to produce a semi-purified membrane pellet. The pellet was resuspended in homogenization and stored at −80° C.
(§3) On the day of the assay, the pellet was thawed on ice and diluted in assay buffer (50 mM Tris-HCl, 5 mM MgCl2, 2.5 mM EDTA, 0.5 mg/mL fatty acid free bovine serum albumin, pH 7.5). The diluted membrane pellet was added with buffer, either a test compound or vehicle standard and a the radioligand [H]^3+-CP-55,940 (0.2 nM) to the wells of a 96-well polypropylene plate. Non-specific binding was measured in wells containing WIN 55,212 (10 uM). The plate was covered and incubated for 90 minutes at 30° C. The contents were then aspirated onto a Packard Unifilter GF/C filter bottom plate prewet with 0.5% polyethyleneimine. The wells of the polypropylene plate were rinsed and aspirated seven times with a 0.9% saline-0.5% Tween 20 solution. The Unifilter plate was dried, a scintillation cocktail was added to each well and the counts representing binding were quantitated in a TopCount scintillation counter.
(§4) For compounds tested, an IC50 binding value was obtained from percent inhibition studies in which various test concentrations were used. The binding value (in μM) was calculated by linear regression.
(§5) For those compounds without an IC50 binding value, the percent inhibition (%) was obtained at a test concentration of 0.2 μM.

Experiment [2] deals with T2, cannabinoid CB2 receptor (Homo sapiens, UniProt P34972).
T2 construct: expressed in transfected cells; host or cells: SK-N-MC cells, pcDNA3 CB-2 (human), semi-purified membrane pellet
Kind of experiment: Binding assay for CB2, [3H]-CP-55,940 displacement on membranes of transfected SK-N-MC cells. The following applies: test concentration of 0.2 μM. The procedure:
as §1, §2, §3, §4, §5

T2 sequence (P34972 whole entry): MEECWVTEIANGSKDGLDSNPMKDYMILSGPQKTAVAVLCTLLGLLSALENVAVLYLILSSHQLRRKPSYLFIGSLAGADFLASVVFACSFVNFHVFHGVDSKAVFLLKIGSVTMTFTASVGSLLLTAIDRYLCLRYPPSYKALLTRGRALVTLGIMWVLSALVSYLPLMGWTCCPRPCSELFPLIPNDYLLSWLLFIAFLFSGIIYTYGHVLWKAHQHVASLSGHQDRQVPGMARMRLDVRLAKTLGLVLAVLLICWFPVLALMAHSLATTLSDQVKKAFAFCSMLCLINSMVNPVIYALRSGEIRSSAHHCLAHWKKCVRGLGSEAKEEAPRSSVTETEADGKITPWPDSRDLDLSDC
T1 sequence (P21554 whole entry): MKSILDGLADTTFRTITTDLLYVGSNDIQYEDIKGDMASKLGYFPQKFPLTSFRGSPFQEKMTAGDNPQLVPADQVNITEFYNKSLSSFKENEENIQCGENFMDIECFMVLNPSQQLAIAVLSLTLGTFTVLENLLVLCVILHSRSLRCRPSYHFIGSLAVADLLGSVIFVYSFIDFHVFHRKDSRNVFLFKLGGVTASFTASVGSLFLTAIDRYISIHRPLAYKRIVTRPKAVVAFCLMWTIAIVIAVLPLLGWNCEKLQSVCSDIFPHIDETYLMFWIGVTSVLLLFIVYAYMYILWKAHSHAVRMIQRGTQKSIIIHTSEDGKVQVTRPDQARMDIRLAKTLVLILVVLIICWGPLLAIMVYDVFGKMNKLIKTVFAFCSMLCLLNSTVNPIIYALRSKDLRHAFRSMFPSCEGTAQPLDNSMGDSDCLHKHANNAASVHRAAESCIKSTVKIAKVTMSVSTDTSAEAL

On to `CC(C)(C)OC(=O)N1CCc2c(C(=O)NN3CCCCC3)nn(-c3ccc(Cl)cc3Cl)c2/C(=C/c2ccc(F)cc2)C1` [Cpd 2, (8E)-1-(2,4-dichloro-phenyl)-8-(4-fluoro-benzylidene)-3-(piperidin-1-ylcarbamoyl)-4,5,7,8-tetrahydro-1H-1,2,6-triaza-azulene-6-carboxylic acid tert-butyl ester], for which the values for the inhibition at 0.2 µM in experiment [1] and in experiment [2] were 54% and 15%, respectively.
As to `CC(NC(=O)c1nn(-c2ccc(Cl)cc2Cl)c2c1CCN(C(=O)OC(C)(C)C)C/C2=C\c1ccc(F)cc1)c1ccccn1` (stereo not drawn) [Cpd 4, (8E)-1-(2,4-dichloro-phenyl)-8-(4-fluoro-benzylidene)-3-(1-pyridin-2-yl-ethylcarbamoyl)-4,5,7,8-tetrahydro-1 H-1,2,6-triaza-azulene-6-carboxylic acid tert-butyl ester], the IC50 in experiment [1] was 50 nM. For the same molecule, the inhibition at 0.2 µM in experiment [2] was found to be 14%.
For the molecule `COC(=O)N1CCc2c(C(=O)NN3CCCCC3)nn(-c3ccc(Cl)cc3Cl)c2/C(=C/c2ccc(F)cc2)C1` [Cpd 6, (8E)-1-(2,4-dichloro-phenyl)-8-(4-fluoro-benzylidene)-3-(piperidin-1-ylcarbamoyl)-4,5,7,8-tetrahydro-1H-1,2,6-triaza-azulene-6-carboxylic acid methyl ester], the inhibition at 0.2 µM in experiment [1] came to 39%; in experiment [2] it was 17%.
The matching figures for `CC(C)(C)OC(=O)N1CCc2c(C(=O)N3CCCCC3)nn(-c3ccc(Cl)cc3Cl)c2/C(=C/c2ccc(F)cc2)C1` [Cpd 1, (8E)-1-(2,4-dichloro-phenyl)-8-(4-fluoro-benzylidene)-3-(piperidine-1-carbonyl)-4,5,7,8-tetrahydro-1 H-1,2,6-triaza-azulene-6-carboxylic acid tert-butyl ester]: 27% and 6%.
As for `CC(NC(=O)c1nn(-c2ccc(Cl)cc2Cl)c2c1CCN(C(=O)OC(C)(C)C)C/C2=C\c1ccc(F)cc1)c1ccccc1` (stereo not drawn) [Cpd 3, (8E)-1-(2,4-dichloro-phenyl)-8-(4-fluoro-benzylidene)-3-(1-phenyl-ethylcarbamoyl)-4,5,7,8-tetrahydro-1 H-1,2,6-triaza-azulene-6-carboxylic acid tert-butyl ester], the half-maximal inhibitory concentration (IC50) in experiment [1] is 61 nM. The molecule further came in with an inhibition at 0.2 µM in experiment [2] of 15%.
Turning to `O=C(c1nn(-c2ccc(Cl)cc2Cl)c2c1CCNC/C2=C\c1ccc(F)cc1)N1CCCCC1` [Cpd 5, (8E)-[1-(2,4-dichloro-phenyl)-8-(4-fluoro-benzylidene)-1,4,5,6,7,8-hexahydro-1,2,6-triaza-azulen-3-yl]-piperidin-1-yl-methanone], the figures for the inhibition at 0.2 µM in experiment [1] and in experiment [2] were 16% and 10%, respectively.
